From ChEMBL document CHEMBL3526091, “Pharmacokinetics, metabolism, and excretion of the glycogen synthase kinase-3 inhibitor LY2090314 in rats, dogs, and humans: a case study in rapid clearance by extensive metabolism with low circulating metabolite exposure” (Drug Metab Dispos, 2013)

How the values were obtained:
Rattus norvegicus [1] = experiment: Volume of distribution at steady state in Sprague-Dawley rat assessed as total radioactivity at 5 mg/kg, iv administered for 30 mins; assay type: ADME, organism-based; set-up: dose 5 mg/kg, dosed compound name [14C]LY2090314, route intravenous; conditions: in vivo, 0.5 h
[2] = Drug metabolism in Bcrp knockout Sprague-Dawley rat bile at 5 mg/kg, iv administered for 30 mins; assay type: ADME, organism-based; set-up: dose 5 mg/kg, dosed compound name LY2090314, route intravenous; conditions: in vivo, 0.5 h
[3] = Half life in cancer patient at 20 mg for 60 mins treated 2/1 cycle/day; assay type: ADME, organism-based; set-up: dosed compound name LY2090314; conditions: human, in vivo
[4] = AUC (0 to infinity) in cancer patient at 20 mg for 60 mins treated 1/1 cycle/day; assay type: ADME, organism-based; set-up: dose 20 mg, time infinity, dosed compound name LY2090314; conditions: human, plasma
[5] = Drug recovery in bile duct-intact beagle dog assessed as radioactivity in feces during 0 to 48 hrs at 5 mg/kg, iv administered for 30 mins; assay type: ADME, organism-based, Canis lupus familiaris; set-up: dose 5 mg/kg, dosed compound name [14C]LY2090314, route intravenous; conditions: in vivo
[6] = Cmax in cancer patient at 120 mg for 60 mins treated 1/8 cycle/day; assay type: ADME, organism-based; set-up: dose 120 mg, dosed compound name LY2090314; conditions: human, in vivo
[7] = Drug recovery in bile duct-cannulated Sprague-Dawley rat assessed as radioactivity in feces during 0 to 24 hrs at 5 mg/kg, iv administered for 30 mins relative to dosed radioactivity; assay type: ADME, organism-based; set-up: dose 5 mg/kg, dosed compound name [14C]LY2090314, route intravenous; conditions: in vivo
[8] = Clearance in beagle dog at 5 mg/kg, iv administered for 30 mins; assay type: ADME, organism-based, Canis lupus familiaris; set-up: dose 5 mg/kg, dosed compound name [14C]LY2090314, route intravenous; conditions: in vivo
[9] = Half life in cancer patient at 60 mg for 60 mins treated 1/1 cycle/day; assay type: ADME, organism-based; set-up: dosed compound name LY2090314; conditions: human, in vivo
[10] = Drug recovery in bile duct-cannulated Sprague-Dawley rat feces at 5 mg/kg, iv administered for 30 mins during 0 to 168 hrs time interval by radio analysis; assay type: ADME, organism-based; set-up: dose 5 mg/kg, dosed compound name [14C]LY2090314, route intravenous; conditions: in vivo
[11] = Clearance in cancer patient at 10 mg for 60 mins treated 1/1 cycle/day; assay type: ADME, organism-based; set-up: dosed compound name LY2090314; conditions: human, in vivo
[12] = Clearance in cancer patient at 60 mg for 60 mins treated 1/1 cycle/day; assay type: ADME, organism-based; set-up: dosed compound name LY2090314; conditions: human, in vivo
Rattus norvegicus [13] = experiment: Drug recovery in Sprague-Dawley rat cage at 5 mg/kg, iv administered for 30 mins during 0 to 168 hrs time interval by radio analysis; assay type: ADME, organism-based; set-up: dose 5 mg/kg, dosed compound name [14C]LY2090314, route intravenous; conditions: in vivo
[14] = Drug recovery in beagle dog urine at 5 mg/kg, iv administered for 30 mins during 0 to 24 hrs time interval by radio analysis; assay type: ADME, organism-based, Canis lupus familiaris; set-up: dose 5 mg/kg, dosed compound name [14C]LY2090314, route intravenous; conditions: in vivo
Plasma [15] = experiment: Drug metabolism in Mdr1a knockout Sprague-Dawley rat plasma at 5 mg/kg, iv administered for 30 mins; assay type: ADME, organism-based; set-up: dose 5 mg/kg, dosed compound name LY2090314, route intravenous; conditions: in vivo, 0.5 h
[16] = Tmax in cancer patient at 60 mg for 60 mins treated 1/1 cycle/day; assay type: ADME, organism-based; set-up: dosed compound name LY2090314; conditions: human, in vivo
[17] = Tmax in cancer patient at 40 mg for 60 mins treated 1/1 cycle/day; assay type: ADME, organism-based; set-up: dosed compound name LY2090314; conditions: human, in vivo
[18] = Tmax in cancer patient at 120 mg for 60 mins treated 1/8 cycle/day; assay type: ADME, organism-based; set-up: dosed compound name LY2090314; conditions: human, in vivo
[19] = AUC (0 to infinity) in cancer patient at 60 mg for 60 mins treated 1/1 cycle/day; assay type: ADME, organism-based; set-up: dose 60 mg, time infinity, dosed compound name LY2090314; conditions: human, plasma
Plasma [20] = experiment: Drug recovery in beagle dog plasma assessed as radiochemical peak area at 5 mg/kg, iv administered for 30 mins after 0.5 hrs by radio analysis; assay type: ADME, organism-based, Canis lupus familiaris; set-up: dose 5 mg/kg, dosed compound name [14C]LY2090314, route intravenous; conditions: in vivo
Plasma [21] = experiment: Drug recovery in beagle dog plasma assessed as radiochemical peak area at 5 mg/kg, iv administered for 30 mins after 2 hrs by radio analysis; assay type: ADME, organism-based, Canis lupus familiaris; set-up: dose 5 mg/kg, dosed compound name [14C]LY2090314, route intravenous; conditions: in vivo
[22] = AUC (0 to infinity) in cancer patient at 10 mg for 60 mins treated 1/1 cycle/day; assay type: ADME, organism-based; set-up: dose 10 mg, time infinity, dosed compound name LY2090314; conditions: human, plasma
[23] = Clearance in cancer patient at 40 mg for 60 mins treated 1/8 cycle/day; assay type: ADME, organism-based; set-up: dosed compound name LY2090314; conditions: human, in vivo
[24] = Tmax in cancer patient at 80 mg for 60 mins treated 1/8 cycle/day; assay type: ADME, organism-based; set-up: dosed compound name LY2090314; conditions: human, in vivo
[25] = Tmax in cancer patient at 60 mg for 60 mins treated 1/8 cycle/day; assay type: ADME, organism-based; set-up: dosed compound name LY2090314; conditions: human, in vivo
Canis familiaris = experiment: Tmax in beagle dog assessed as total radioactivity at 5 mg/kg, iv administered for 30 mins; assay type: ADME, organism-based, Canis lupus familiaris; set-up: dose 5 mg/kg, dosed compound name [14C]LY2090314, route intravenous; conditions: in vivo, 0.5 h

## O=C1NC(=O)C(c2cnc3ccccn23)=C1c1cn2c3c(cc(F)cc13)CN(C(=O)N1CCCCC1)CC2 [LY-2090314]
Rattus norvegicus [1]
  Vdss: 4.489 L/kg
[2]
  Drug metabolism: metabolite_detected
[3]
  half-life: 115 min
[4]
  AUC(0-inf): 427 ng·h/mL
[5]
  Radiolabel recovery: 4.1%
[6]
  Cmax: 768 ng/mL
[7]
  Radiolabel recovery: 6.75%
[8]
  clearance: 27.9 mL/min/kg
[9]
  half-life: 189 min
[10]
  Radiolabel recovery: 6.75%
[11]
  clearance: 787 mL/min
[12]
  clearance: 617 mL/min
Rattus norvegicus [13]
  Radiolabel recovery: 0.14%
[14]
  Radiolabel recovery: 19.8%
Plasma [15]
  Drug metabolism: metabolite_not_detected
[16]
  Tmax: 33 min
[17]
  Tmax: 58.8 min
[18]
  Tmax: 30 min
[19]
  AUC(0-inf): 1600 ng·h/mL
Plasma [20]
  Radiolabel recovery: 82.76%
Plasma [21]
  Radiolabel recovery: 36.09%
[22]
  AUC(0-inf): 216 ng·h/mL
[23]
  clearance: 710 mL/min
[24]
  Tmax: 58.8 min
[25]
  Tmax: 55.2 min
Canis familiaris
  Tmax: 30 min
